We go through 24 compounds from patent publication US6335350B1, “Acetamide and substituted acetamide-containing thiourea inhibitors of herpes viruses” (American Home Products Corporation, priority 1998, dated 2002).

One assay relates to HCMV wild-type. Nature of the assay: HCMV yield assay. The class given is cell-based, human cytomegalovirus. The following applies: human foreskin fibroblasts; for IC50: Human betaherpesvirus 5, Fibroblast, read-out: IC50 Ug/ml HCMV. In outline: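 Value is the compound amount cutting virus yield titer by 50% (IC50) or 90% (IC90). Human foreskin fibroblasts infected with wild-type HCMV (MOI typically 0.2) under varying compound; progeny harvested day 3, titered compound-free on fibroblasts, plaques scored at 2 weeks.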

The test system of another assay is HSV-1. Nature of the assay: HSV Antiviral (ELISA) Assay. The class given is cell-based, herpes simplex virus type 1. The following applies: Vero cells, HSV-1; for IC50: Human alphaherpesvirus 1, Vero, read-out: IC50 Ug/ml HSV. An outline of the steps: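 Replication measured as glycoprotein D signal in fixed cells: anti-gD antibody plus β-galactosidase-linked secondary, fluorogenic substrate read at 365/450 nm. Vero cells (2% FBS DMEM) received compound 30 min pre-infection, HSV-1 MOI 0.006, ~24 h incubation; IC50 relative to no-compound fluorescence.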
(In general: In an ELISA, binding on a coated surface is turned into a signal by an enzyme label.)

Another assay has as its system VZV strain Ellen. Kind of assay: VZV Antiviral (ELISA) Assay. The note with it: human foreskin fibroblast cells; for IC50 / inhibition at 10 µg/mL: Human alphaherpesvirus 3, Fibroblast; for IC50: read-out: IC50 Ug/ml VZV; for inhibition at 10 µg/mL: read-out: % inhibition 10 ug/ml VZV, 10 ug/ml. The format is cell-based, varicella-zoster virus. In outline: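 Cell-based VZV (Ellen) spread assay in HFF, 3-day compound exposure in 2% FBS medium. Viral antigen quantified by fluorescent β-galactosidase ELISA; IC50 from inhibition of signal.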

SMILES strings stand for the structures. ≈ marks a conversion by molar mass, not a printed value.

For the compound `CC(=O)Nc1ccc(NC(=S)Nc2ccc(NC3CCCCC3)c(Cl)c2)cc1` [Example 299, N-{4-[3-(3-Chloro-4-cyclohexylamino-phenyl)-thioureido]-phenyl}-acetamide], the IC50 with HCMV wild-type is 6 µg/mL (≈ 14.4 µM); in the assay on HSV-1, above 10 µg/mL; in the assay on VZV strain Ellen, 3.8 µg/mL (≈ 9.11 µM). Besides, the inhibition at 10 µg/mL in the assay on VZV strain Ellen was found to be 72%.

For the compound `CC(=O)Nc1ccc(NC(=S)Nc2ccc(N(C)CCN(C)C)c(Cl)c2)cc1` [Example 300], the “IC50 Ug/ml HCMV” value in the assay on HCMV wild-type came to 1.5 Ug/ml. The “IC50 Ug/ml HSV” value with HSV-1 is recorded as above 50 Ug/ml. Besides, in the assay on VZV strain Ellen, the “% inhibition 10 ug/ml VZV” value is listed as 23% and the “IC50 Ug/ml VZV” value is above 10 Ug/ml.

Consider `COc1cc(OC)c(NC(=S)Nc2ccc(NC(C)=O)c(C(F)(F)F)c2)cc1Cl` [Example 305, N-{4-[3-(5-Chloro-2,4-dimethoxy-phenyl)-thioureido]-2-trifluoromethyl-phenyl}-acetamide], for which the IC50 in the assay on HCMV wild-type, in the assay with HSV-1 and with VZV strain Ellen was above 10 µg/mL each time. Besides, the inhibition at 10 µg/mL in the assay with VZV strain Ellen amounted to 32%.

Turning to `COc1cc(OC)c(NC(=S)Nc2ccc(NC(C)=O)c(C)c2)cc1Cl` [Example 309, N-{4-[3-(5-Chloro-2,4-dimethoxy-phenyl)-thioureido]-2-methyl-phenyl}-acetamide], the IC50 in the assay with HCMV wild-type was 25 µg/mL (≈ 63.5 µM); with HSV-1, 8 µg/mL (≈ 20.3 µM); in the assay on VZV strain Ellen, above 10 µg/mL. Also, the inhibition at 10 µg/mL in the assay with VZV strain Ellen stood at 22%.

Turning to `CC(=O)Nc1ccc(NC(=S)Nc2ccc(NC(C)=O)c(Cl)c2)cc1` [Example 312, N-{4-[3-(4-Acetylamino-phenyl)-thioureido]-2-chloro-phenyl}-acetamide], the results for the IC50 in the assay with HCMV wild-type, in the assay with HSV-1 and in the assay with VZV strain Ellen were 50 µg/mL (≈ 133 µM), 50 µg/mL (≈ 133 µM) and above 10 µg/mL, respectively. Moreover, the inhibition at 10 µg/mL in the assay on VZV strain Ellen turned out to be 22%.

As to `CCOC(=O)Nc1ccc(NC(=S)Nc2ccc(NC(C)=O)cc2)cc1Cl` [Example 313, {4-[3-(4-Acetylamino-phenyl)-thioureido]-2-chloro-phenyl}-carbamic acid ethyl ester], the IC50 in the assay with HCMV wild-type, with HSV-1 and with VZV strain Ellen was above 10 µg/mL each time. Moreover, the inhibition at 10 µg/mL in the assay on VZV strain Ellen was determined as 36%.

As to `COc1cc(OC)c(NC(=S)Nc2ccc(NC(C)=O)nc2)cc1Cl` [Example 314, N-{5-[3-(5-Chloro-2,4-dimethoxy-phenyl)-thioureido]-pyridin-2-yl}-acetamide], the IC50 was 30 µg/mL (≈ 78.8 µM) in the assay on HCMV wild-type, 2 µg/mL (≈ 5.25 µM) in the assay with HSV-1 and above 10 µg/mL in the assay with VZV strain Ellen. For the same compound, in the assay on VZV strain Ellen, the inhibition at 10 µg/mL turned out to be 34%.

As for `CC(=O)Nc1ccc(NC(=S)Nc2ccc(NC3CCN(Cc4ccccc4)CC3)c(Cl)c2)cc1` [Example 315, N-(4-{3-[4-(1-Benzyl-piperidin-4-ylamino)-3-chloro-phenyl]-thioureido}-phenyl)-acetamide], the IC50 with HCMV wild-type was 1.5 µg/mL (≈ 2.95 µM); in the assay with HSV-1, 8 µg/mL (≈ 15.7 µM); in the assay on VZV strain Ellen, above 10 µg/mL. The inhibition at 10 µg/mL in the assay with VZV strain Ellen was determined as 40%.

For `CC(=O)Nc1ccc(NC(=S)Nc2ccc(NCCN(C)C)c(Cl)c2)cc1` [Example 316, N-(4-{3-[3-Chloro-4-(2-dimethylamino-ethylamino)-phenyl]-thioureido}-phenyl)-acetamide], the IC50 was above 50 µg/mL with HCMV wild-type, 30 µg/mL (≈ 73.9 µM) in the assay on HSV-1 and above 10 µg/mL in the assay on VZV strain Ellen. The inhibition at 10 µg/mL in the assay with VZV strain Ellen was 56%.

As to `COCCN(C)c1ccc(NC(=S)Nc2ccc(NC(C)=O)cc2)cc1Cl` [Example 317, N-[4-(3-{3-Chloro-4-[(2-methoxy-ethyl)-methyl-amino]-phenyl}-thioureido)-phenyl]-acetamide], the figures for the IC50 with HCMV wild-type, in the assay with HSV-1 and with VZV strain Ellen were 2 µg/mL (≈ 4.91 µM), 35 µg/mL (≈ 86 µM) and above 10 µg/mL, respectively. The inhibition at 10 µg/mL with VZV strain Ellen came out at 30%.

For `CC(=O)Nc1ccc(NC(=S)Nc2ccc(NCCCN(C)C)c(Cl)c2)cc1` [Example 318, N-(4-{3-[3-Chloro-4-(3-dimethylamino-propylamino)-phenyl]-thioureido}-phenyl)-acetamide], the IC50 in the assay on HCMV wild-type is above 50 µg/mL; with HSV-1, above 50 µg/mL; with VZV strain Ellen, above 10 µg/mL. Also, the inhibition at 10 µg/mL with VZV strain Ellen was determined as 26%.

`CC(=O)Nc1ccc(NC(=S)Nc2ccc(NC3CCN(Cc4ccccc4)C3)c(Cl)c2)cc1` (stereo not drawn) [Example 319, N-(4-{3-[4-(1-Benzyl-pyrrolidin-3-ylamino)-3-chloro-phenyl]-thioureido}-phenyl)-acetamide]: the IC50 in the assay with HCMV wild-type was 5 µg/mL (≈ 10.1 µM); with HSV-1, 6 µg/mL (≈ 12.1 µM); in the assay on VZV strain Ellen it was 7 µg/mL (≈ 14.2 µM). Also, the inhibition at 10 µg/mL with VZV strain Ellen was 82%.

For the compound `COc1cc(OC)c(NC(=S)Nc2cc(O)c(NC(C)=O)cc2Cl)cc1Cl` [Example 321, N-{5-Chloro-4-[3-(5-chloro-2,4-dimethoxy-phenyl)-thioureido]-2-hydroxy-phenyl}-acetamide], the IC50 in the assay on HCMV wild-type is 18 µg/mL (≈ 41.8 µM); in the assay with HSV-1, 7 µg/mL (≈ 16.3 µM); with VZV strain Ellen, above 10 µg/mL. The inhibition at 10 µg/mL in the assay with VZV strain Ellen was 28%.

With `COc1cc(OC)c(NC(=S)Nc2cc(C)c(NC(C)=O)cc2Cl)cc1Cl` [Example 326, N-{5-Chloro-4-[3-(5-chloro-2,4-dimethoxy-phenyl)-thioureido]-2-methyl-phenyl}-acetamide], the IC50 in the assay on HCMV wild-type was above 10 µg/mL; in the assay with HSV-1 it was 10 µg/mL (≈ 23.3 µM); in the assay on VZV strain Ellen it was above 10 µg/mL. In addition, the inhibition at 10 µg/mL with VZV strain Ellen was determined as 19%.

Turning to `COc1cc(OC)c(NC(=S)Nc2ccc(NC(C)=O)c3ccccc23)cc1Cl` [Example 329, N-{4-[3-(5-Chloro-2,4-dimethoxy-phenyl)-thioureido]-naphthalen-1-yl}-acetamide], the IC50 was above 10 µg/mL with HCMV wild-type, 4 µg/mL (≈ 9.3 µM) with HSV-1 and above 10 µg/mL in the assay with VZV strain Ellen. Besides, the inhibition at 10 µg/mL in the assay with VZV strain Ellen worked out at 38%.

As for `CC(=O)Nc1ccc(NC(=S)Nc2ccc(OC3CCN(C)C3)c(Cl)c2)cc1` (stereo not drawn) [Example 334, N-(4-{3-[3-Chloro-4-(1-methyl-pyrrolidin-3-yloxy)-phenyl]-thioureido}-phenyl)-acetamide], the figures for the IC50 in the assay on HCMV wild-type, with HSV-1 and in the assay with VZV strain Ellen were 18 µg/mL (≈ 43 µM), 35 µg/mL (≈ 83.5 µM) and above 10 µg/mL, respectively. In addition, the inhibition at 10 µg/mL in the assay on VZV strain Ellen turned out to be 7%.

With `CC(=O)Nc1ccc(NC(=S)Nc2ccc(OC3CCN(C)CC3)c(Cl)c2)cc1` [Example 335, N-(4-{3-[3-Chloro-4-(1-methyl-piperidin-4-yloxy)-phenyl]-thioureido}-phenyl)-acetamide], the IC50 in the assay with HCMV wild-type was 30 µg/mL (≈ 69.3 µM); in the assay on HSV-1, 30 µg/mL (≈ 69.3 µM); in the assay with VZV strain Ellen it was above 10 µg/mL. Besides, the inhibition at 10 µg/mL in the assay with VZV strain Ellen was found to be 8%.

For `CC(=O)Nc1ccc(NC(=S)Nc2ccc(OCCCN(C)C)c(Cl)c2)cc1` [Example 336, N-(4-{3-[3-Chloro-4-(3-dimethylamino-propoxy)-phenyl]-thioureido}-phenyl)-acetamide], the IC50 is 50 µg/mL (≈ 119 µM) with HCMV wild-type, 40 µg/mL (≈ 95 µM) in the assay with HSV-1 and above 10 µg/mL in the assay with VZV strain Ellen. The inhibition at 10 µg/mL in the assay with VZV strain Ellen was found to be 17%.

As to `COc1cc(OC)c(NC(=S)Nc2ccc(NC(C)=O)c(C(=O)O)c2)cc1Cl` [Example 337, 2-Acetylamino-5-[3-(5-chloro-2,4-dimethoxy-phenyl)-thioureido]-benzoic acid], the IC50 is above 50 µg/mL in the assay with HCMV wild-type, above 50 µg/mL with HSV-1 and above 10 µg/mL with VZV strain Ellen. Also, the inhibition at 10 µg/mL in the assay with VZV strain Ellen was 31%.

For the compound `CC(=O)Nc1ccc(NC(=S)Nc2ccc(OCCN(C)C)c(Cl)c2)cc1` [Example 343, N-(4-{3-[3-Chloro-4-(2-dimethylamino-ethoxy)-phenyl]-thioureido}-phenyl)-acetamide], the values for the IC50 in the assay with HCMV wild-type, with HSV-1 and in the assay on VZV strain Ellen were 40 µg/mL (≈ 98.3 µM), above 50 µg/mL and above 10 µg/mL, respectively. Also, in the assay on VZV strain Ellen, the inhibition at 10 µg/mL amounted to 38%.

Turning to `CC(=O)Nc1ccc(NC(=S)Nc2ccc(OC3CCCCC3)c(Cl)c2)cc1` [Example 345, N-{4-[3-(3-Chloro-4-cyclohexyloxy-phenyl)-thioureido]-phenyl}-acetamide], the IC50 with HCMV wild-type, with HSV-1 and with VZV strain Ellen was above 10 µg/mL in each case. The inhibition at 10 µg/mL with VZV strain Ellen is 30%.

As for `COc1cc(OC)c(NC(=S)Nc2ccc(NC(C)=O)cc2C(F)(F)F)cc1Cl` [Example 358, N-{4-[3-(5-Chloro-2,4-dimethoxy-phenyl)-thioureido]-3-trifluoromethyl-phenyl}-acetamide], the IC50 in the assay with HCMV wild-type is above 10 µg/mL; in the assay with HSV-1, 2 µg/mL (≈ 4.47 µM); with VZV strain Ellen, above 10 µg/mL. Further, in the assay on VZV strain Ellen, the inhibition at 10 µg/mL came out at 31%.

In the case of `CC(=O)Nc1ccc(NC(=S)Nc2ccc(NC(=O)CN(C)C)c(Cl)c2)cc1` [Example 360, N-{4-[3-(4-Acetylamino-phenyl)-thioureido]-2-chloro-phenyl}-2-dimethyl-amino-acetamide], in the assay with HCMV wild-type, the “IC50 Ug/ml HCMV” value is above 10 Ug/ml. In the assay with HSV-1, the “IC50 Ug/ml HSV” value is above 10 Ug/ml. In the assay on VZV strain Ellen, the “% inhibition 10 ug/ml VZV” value is 16% and the “IC50 Ug/ml VZV” value is given as above 10 Ug/ml.

As for `CC(=O)Nc1ccc(NC(=S)Nc2ccc(NC(=O)CN3CCCCC3)c(Cl)c2)cc1` [Example 363, N-{4-[3-(4-Acetylamino-phenyl)-thioureido]-2-chloro-phenyl}-2-piperidin-1-yl-acetamide], the values for the IC50 in the assay on HCMV wild-type, with HSV-1 and with VZV strain Ellen were 7 µg/mL (≈ 15.2 µM), above 10 µg/mL and above 10 µg/mL, respectively. Besides, the inhibition at 10 µg/mL in the assay with VZV strain Ellen amounted to 58%.
